Measurements reported in ChEMBL document CHEMBL4373717, “Coumarin-containing hybrids and their anticancer activities” (Eur J Med Chem, 2019).
In brackets after ≈: the same amount, converted by molar mass.

Legend:
[1] = target: RAC-alpha serine/threonine-protein kinase (Homo sapiens, UniProt P31749); test: Inhibition of AKT phosphorylation in human K562 cells; assay type: cell-based
[2] = test system: HeLa; test: Cytotoxicity against human HeLa cells assessed as reduction in cell viability after 68 hrs by MTT assay; assay type: functional, cell-based
[3] = test system: A549; test: Cytotoxicity against human A549 cells assessed as reduction in cell viability after 68 hrs by MTT assay; assay type: functional, cell-based; settings: A549, 68 h
[4] = test system: MCF7; test: Cytotoxicity against human MCF7 cells assessed as reduction in cell viability after 68 hrs by MTT assay; assay type: functional, cell-based; settings: MCF7, 68 h
[5] = test system: K562; test: Cytotoxicity against human K562 cells assessed as reduction in cell viability after 68 hrs by MTT assay; assay type: functional, cell-based; settings: K562, 68 h
[6] = test system: K562; test: Anticancer activity against human K562 cells by MTT assay; assay type: functional, cell-based
[7] = test system: HeLa; test: Anticancer activity against human HeLa cells by MTT assay; assay type: functional, cell-based
[8] = test system: A549; test: Anticancer activity against human A549 cells by MTT assay; assay type: functional, cell-based
[9] = test system: MDA-MB-231; test: Anticancer activity against human MDA-MB-231 cells by MTT assay; assay type: functional, cell-based
[10] = test system: NCI-H157; test: Cytotoxicity against human NCI-H157 cells assessed as reduction in cell viability after 48 hrs by SRB assay; assay type: functional, cell-based; settings: NCI-H157, 48 h
[11] = test system: BHK-21; test: Cytotoxicity against BHK21 cells assessed as reduction in cell viability after 48 hrs by SRB assay; assay type: cell-based; settings: Mesocricetus auratus, BHK-21, 48 h
[12] = test system: SK-OV-3; test: Cytotoxicity against human SKOV3 cells assessed as reduction in cell viability by SRB assay; assay type: functional, cell-based
[13] = test system: DU-145; test: Cytotoxicity against human DU145 cells assessed as reduction in cell viability by SRB assay; assay type: functional, cell-based
[14] = test system: MCF7; test: Cytotoxicity against human MCF7 cells assessed as reduction in cell viability by SRB assay; assay type: functional, cell-based
[15] = Cytotoxicity against human MCF7/DX cells assessed as reduction in cell viability by SRB assay; assay type: functional, cell-based
[16] = test system: HeLa; test: Cytotoxicity against human HeLa cells assessed as reduction in cell viability by SRB assay; assay type: functional, cell-based
[17] = test system: HepG2; test: Cytotoxicity against human HepG2 cells assessed as reduction in cell viability by SRB assay; assay type: functional, cell-based
[18] = test system: A549; test: Cytotoxicity against human A549 cells assessed as reduction in cell viability by SRB assay; assay type: functional, cell-based
[19] = test system: MCF7; test: Cytotoxicity against human MCF7 cells assessed as reduction in cell viability by MTT assay; assay type: functional, cell-based; settings: Homo sapiens, MCF7
[20] = test system: DLD-1; test: Cytotoxicity against human DLD1 cells assessed as reduction in cell viability; assay type: functional, cell-based
[21] = test system: HepG2; test: Cytotoxicity against human HepG2 cells assessed as reduction in cell viability; assay type: functional, cell-based
[22] = test system: HeLa; test: Antiproliferative activity against human HeLa cells by MTT assay; assay type: functional, cell-based

Sequence of RAC-alpha serine/threonine-protein kinase (P31749 whole entry): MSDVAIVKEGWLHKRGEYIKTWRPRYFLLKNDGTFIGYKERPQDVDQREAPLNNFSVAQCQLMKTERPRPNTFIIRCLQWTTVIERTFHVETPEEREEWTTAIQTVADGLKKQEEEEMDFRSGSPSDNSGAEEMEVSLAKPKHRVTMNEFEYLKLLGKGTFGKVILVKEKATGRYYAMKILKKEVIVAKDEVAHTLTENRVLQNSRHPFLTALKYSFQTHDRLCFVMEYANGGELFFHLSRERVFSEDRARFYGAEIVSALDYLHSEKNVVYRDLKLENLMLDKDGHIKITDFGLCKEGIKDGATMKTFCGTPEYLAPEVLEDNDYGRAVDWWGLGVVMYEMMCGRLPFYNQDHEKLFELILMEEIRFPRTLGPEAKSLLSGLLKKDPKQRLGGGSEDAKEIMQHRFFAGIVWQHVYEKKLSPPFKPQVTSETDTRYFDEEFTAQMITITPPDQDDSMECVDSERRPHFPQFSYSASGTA

Cc1c(Cc2ccc(NC(=O)Nc3ccc(Br)cc3)nc2)c(=O)oc2cc(O)c(C(C)(C)C)cc12
IC50 [1]: < 10 µM
IC50 [2]: 1.66 to 9.27 µM
IC50 [3]: 1.66 to 9.27 µM
IC50 [4]: 1.66 to 9.27 µM
IC50 [5]: 1.66 to 9.27 µM

COc1ccc(/N=c2\scc(-c3cc4ccccc4oc3=O)n2-n2c(C)nn(-c3ccc(OC)cc3)c2=O)cc1
IC50 [6]: 0.16 to 1.12 µg/mL (≈ 0.289 to 2.02 µM)
IC50 [7]: 0.16 to 1.12 µg/mL (≈ 0.289 to 2.02 µM)
IC50 [8]: 0.16 to 1.12 µg/mL (≈ 0.289 to 2.02 µM)
IC50 [9]: 0.16 to 1.12 µg/mL (≈ 0.289 to 2.02 µM)

Cc1nn(-c2ccccc2)c(=O)n1-n1c(-c2cc3ccccc3oc2=O)cs/c1=N\c1ccc(Cl)cc1
IC50 [6]: 0.16 to 1.12 µg/mL (≈ 0.303 to 2.12 µM)
IC50 [7]: 0.16 to 1.12 µg/mL (≈ 0.303 to 2.12 µM)
IC50 [8]: 0.16 to 1.12 µg/mL (≈ 0.303 to 2.12 µM)
IC50 [9]: 0.16 to 1.12 µg/mL (≈ 0.303 to 2.12 µM)

CC[C@]1(O)C[C@H]2CN(CCc3c([nH]c4ccccc34)[C@@](C(=O)OC)(c3cc4c(cc3OC)N(C=O)[C@H]3[C@@](O)(C(=O)OC)[C@H](OC(C)=O)[C@]5(CC)C=CCN6CC[C@]43[C@@H]65)C2)C1 [VINCRISTINE]
IC50 [10]: 1.03 µM
IC50 [11]: 1.08 µM

Cc1cc(=O)oc2cc(OCCOCCN3C(=O)C(=O)c4cc(F)ccc43)ccc12
IC50 [12]: 10.3 to 50 µM
IC50 [13]: 10.3 to 50 µM
IC50 [14]: 10.3 to 50 µM
IC50 [15]: 10.3 to 50 µM
IC50 [16]: 10.3 to 50 µM
IC50 [17]: 10.3 to 50 µM
IC50 [18]: 10.3 to 50 µM

Cc1cc(=O)oc2cc(/N=N/c3ccccc3)c(O)c(/N=N/c3ccccc3)c12
IC50 [19]: 1.87 µg/mL (≈ 4.86 µM)

O=c1oc2ccccc2cc1-c1nnc2n1N=C(c1ccc(-c3ccccc3)cc1)CS2
IC50 [10]: 1.01 to 5.72 µM
IC50 [11]: 1.01 to 5.72 µM

Cc1cc(=O)oc2cc(OCCOCCN3C(=O)C(=O)c4ccccc43)ccc12
IC50 [12]: 10.3 to 50 µM
IC50 [13]: 10.3 to 50 µM
IC50 [14]: 10.3 to 50 µM
IC50 [15]: 10.3 to 50 µM
IC50 [16]: 10.3 to 50 µM
IC50 [17]: 10.3 to 50 µM
IC50 [18]: 10.3 to 50 µM

Cc1nn(-c2ccc(Br)cc2)c(=O)n1-n1c(-c2cc3ccccc3oc2=O)cs/c1=N\c1ccc(Cl)cc1
IC50 [6]: 0.16 to 1.12 µg/mL (≈ 0.264 to 1.85 µM)
IC50 [7]: 0.16 to 1.12 µg/mL (≈ 0.264 to 1.85 µM)
IC50 [8]: 0.16 to 1.12 µg/mL (≈ 0.264 to 1.85 µM)
IC50 [9]: 0.16 to 1.12 µg/mL (≈ 0.264 to 1.85 µM)

COc1cc([C@@H]2c3cc4c(cc3[C@@H](O[C@@H]3O[C@@H]5CO[C@@H](C)O[C@H]5[C@H](O)[C@H]3O)[C@H]3COC(=O)[C@H]23)OCO4)cc(OC)c1O [ETOPOSIDE]
IC50 [15]: > 50 µM
IC50 [16]: > 50 µM
IC50 [18]: > 50 µM

CCNc1ncc(C(=O)c2cc3ccccc3oc2=O)s1
IC50 [20]: 5.66 to 100 µg/mL (≈ 18.8 to 333 µM)
IC50 [21]: 5.66 to 100 µg/mL (≈ 18.8 to 333 µM)

O=c1oc2ccccc2cc1-c1nnc2n1N=C(c1ccc(Cl)c(Cl)c1)CS2
IC50 [10]: 1.73 µM
IC50 [11]: 1.39 µM

O=C(c1cnc(Nc2ccc(Br)cc2)s1)c1cc2ccccc2oc1=O
IC50 [20]: 5.66 to 100 µg/mL (≈ 13.2 to 234 µM)
IC50 [21]: 5.66 to 100 µg/mL (≈ 13.2 to 234 µM)

Cc1ccc(C2=Nn3c(nnc3-c3cc4ccccc4oc3=O)SC2)cc1
IC50 [10]: 1.01 to 5.72 µM
IC50 [11]: 1.01 to 5.72 µM

CNc1ncc(C(=O)c2cc3ccccc3oc2=O)s1
IC50 [20]: 5.66 to 100 µg/mL (≈ 19.8 to 349 µM)
IC50 [21]: 5.66 to 100 µg/mL (≈ 19.8 to 349 µM)

O=c1oc2ccccc2cc1-c1nnc2n1N=C(c1ccc(Cl)cc1)CS2
IC50 [10]: 1.01 to 5.72 µM
IC50 [11]: 1.01 to 5.72 µM

Cc1ccc2c(c1)C(=O)C(=O)N2CCOCCOc1ccc2c(C)cc(=O)oc2c1
IC50 [12]: 10.3 to 50 µM
IC50 [13]: 10.3 to 50 µM
IC50 [14]: 10.3 to 50 µM
IC50 [15]: 10.3 to 50 µM
IC50 [16]: 10.3 to 50 µM
IC50 [17]: 10.3 to 50 µM
IC50 [18]: 10.3 to 50 µM

Cc1nn(-c2ccccc2)c(=O)n1-n1c(-c2cc3ccccc3oc2=O)cs/c1=N\c1ccccc1
IC50 [6]: 0.16 to 1.12 µg/mL (≈ 0.324 to 2.27 µM)
IC50 [7]: 0.16 to 1.12 µg/mL (≈ 0.324 to 2.27 µM)
IC50 [8]: 0.16 to 1.12 µg/mL (≈ 0.324 to 2.27 µM)
IC50 [9]: 0.16 to 1.12 µg/mL (≈ 0.324 to 2.27 µM)

CO/N=C1\C(=O)N(CCOCCOc2ccc3c(C)cc(=O)oc3c2)c2ccc(Cl)cc21
IC50 [12]: 10.3 to 50 µM
IC50 [13]: 10.3 to 50 µM
IC50 [14]: 10.3 to 50 µM
IC50 [15]: 10.3 to 50 µM
IC50 [16]: 10.3 to 50 µM
IC50 [17]: 10.3 to 50 µM
IC50 [18]: 10.3 to 50 µM

CO/N=C1\C(=O)N(CCOCCOc2ccc3c(C)cc(=O)oc3c2)c2ccccc21
IC50 [12]: 10.3 to 50 µM
IC50 [13]: 10.3 to 50 µM
IC50 [14]: 10.3 to 50 µM
IC50 [15]: 10.3 to 50 µM
IC50 [16]: 10.3 to 50 µM
IC50 [17]: 10.3 to 50 µM
IC50 [18]: 10.3 to 50 µM

CCOC(=O)c1sc(N/N=C(\C)c2cc3ccccc3oc2=O)nc1C
IC50 [22]: 0.0091 to 0.569 µM

COc1ccc(/N=c2\scc(-c3cc4ccccc4oc3=O)n2-n2c(C)nn(-c3ccc(C)cc3)c2=O)cc1
IC50 [6]: 0.16 to 1.12 µg/mL (≈ 0.298 to 2.08 µM)
IC50 [7]: 0.16 to 1.12 µg/mL (≈ 0.298 to 2.08 µM)
IC50 [8]: 0.16 to 1.12 µg/mL (≈ 0.298 to 2.08 µM)
IC50 [9]: 0.16 to 1.12 µg/mL (≈ 0.298 to 2.08 µM)

C=CCNc1ncc(C(=O)c2cc3ccccc3oc2=O)s1
IC50 [20]: 5.66 to 100 µg/mL (≈ 18.1 to 320 µM)
IC50 [21]: 5.66 to 100 µg/mL (≈ 18.1 to 320 µM)

COC(=O)c1sc(N/N=C(\C)c2cc3cc(Cl)ccc3oc2=O)nc1C
IC50 [22]: 0.0091 to 0.569 µM

Cc1ccc2c(c1)/C(=N/O)C(=O)N2CCOCCOc1ccc2c(C)cc(=O)oc2c1
IC50 [12]: 10.3 to 50 µM
IC50 [13]: 10.3 to 50 µM
IC50 [14]: 10.3 to 50 µM
IC50 [15]: 10.3 to 50 µM
IC50 [16]: 10.3 to 50 µM
IC50 [17]: 10.3 to 50 µM
IC50 [18]: 10.3 to 50 µM

Cc1cc(=O)oc2cc(OCCOCCN3C(=O)/C(=N\O)c4cc(Cl)ccc43)ccc12
IC50 [12]: 10.3 to 50 µM
IC50 [13]: 10.3 to 50 µM
IC50 [14]: 10.3 to 50 µM
IC50 [15]: 10.3 to 50 µM
IC50 [16]: 10.3 to 50 µM
IC50 [17]: 10.3 to 50 µM
IC50 [18]: 10.3 to 50 µM
